Results on 21 compounds are retold here after patent publication US9566351B2, “Molecular containers and methods of making and using same” (University of Maryland, College Park, priority 2010, dated 2017).

Where “and” joins values, the source holds several entries; their conditions need not be identical. Equal entries are not always repeated. Where two headings read alike, the source gives them in different places.

For data set [1] the following is noted: guest with Motor1; 20 mM sodium phosphate, pH = 7.4; direct UV/Vis titration (dyes) or indicator displacement.
The test system of the next data set is TA1537 strain. The data set is described as follows: Ames test, strain TA1537.
The subject of data set [2] is TA100. Nature of the data set: Ames test, strain TA100. The conditions noted are these: −S9.
In data set [3] the test system is S. typhimurium strain TA1535. Nature of the data set: Ames test, strain TA1535. Particulars: −S9.
For data set [4], the system named is TA100. The conditions noted are these: Salmonella typhimurium, 10 μg/plate.
Another data set relates to TA98 strain. Particulars: Salmonella typhimurium.
Data set [5] relates to S. typhimurium strain TA1535. Particulars: Salmonella typhimurium, 10 μg/plate.
Data set [6] relates to HEK293. The conditions noted are these: human, 48 h, 1 mM.
The subject of data set [7] is HepG2. The conditions noted are these: human, 48 h, 1 mM.
The test system of data set [8] is HEK293. Particulars: human, 48 h, 1 mM. This is another data set of the same source.
For another data set, the target named is T1, hERG (Homo sapiens, UniProt Q12809).
T1 construct: host or cells: transfected HEK-293 cells
The conditions noted are these: transfected HEK-293 cells; HP-β-CD up to 4.2 mg/mL; cited from earlier work.

Data set [9] concerns HepG2. The data set is described as follows: AK (adenylate kinase) release cytotoxicity assay, HepG2. The format is cell-based, human. Particulars: 1 mM, untreated population 60%.
For data set [10] the following is noted: drug with Motor1; 20 mM sodium phosphate buffer (pH=7.4); phase diagram.
The conditions of data set [11]: mouse, in vivo.
The conditions of data set [12]: mouse, in vivo, iv, 3.2 mg/kg.
Data set [13] in a line: Pharmacokinetic study of Motor1.ABZ, IV route (plasma, HPLC). The conditions noted are these: for plasma concentration: IV.
The nature of data set [14]: Pharmacokinetic study of Motor1.ABZ, IP route (plasma, HPLC). The conditions noted are these: for plasma concentration: IP.
For data set [15] the following is noted: aqueous solution; cited from earlier work.
Data set [16] is described as follows: Phase-solubility of pharmaceutical agents with Motor2 (1H NMR). Particulars: drug solubilized with Motor2; 20 mM sodium phosphate buffer (pH=7.4); phase diagram.
In a further data set the test system is Hela. Nature of the data set: In vitro bioactivity of Paclitaxel complexed with Motor1, Hela. Particulars: Paclitaxel 0.6 mM complexed, Paclitaxel 0.002 mM alone, Motor1 5 mM alone. The format is cell-based.
For data set [17] the following is noted: Motor2 toward drug; 1:1 inclusion complex; Ka=Slope/[S0(1−Slope)].
The next data set has as its system MCF-7. The data set is described as follows: In vitro bioactivity of Paclitaxel complexed with Motor1, MCF-7. Type of data set: cell-based. Particulars: Paclitaxel 0.6 mM complexed, Paclitaxel 0.002 mM alone, Motor1 5 mM alone.
The conditions of data set [18]: Motor1 toward drug; 1:1 inclusion complex; Ka=Slope/[S0(1−Slope)].
[19] abbreviates: IV Route, Motor1.ABZ (681 and 3.2 mg/kg).

T1 sequence (Q12809 whole entry): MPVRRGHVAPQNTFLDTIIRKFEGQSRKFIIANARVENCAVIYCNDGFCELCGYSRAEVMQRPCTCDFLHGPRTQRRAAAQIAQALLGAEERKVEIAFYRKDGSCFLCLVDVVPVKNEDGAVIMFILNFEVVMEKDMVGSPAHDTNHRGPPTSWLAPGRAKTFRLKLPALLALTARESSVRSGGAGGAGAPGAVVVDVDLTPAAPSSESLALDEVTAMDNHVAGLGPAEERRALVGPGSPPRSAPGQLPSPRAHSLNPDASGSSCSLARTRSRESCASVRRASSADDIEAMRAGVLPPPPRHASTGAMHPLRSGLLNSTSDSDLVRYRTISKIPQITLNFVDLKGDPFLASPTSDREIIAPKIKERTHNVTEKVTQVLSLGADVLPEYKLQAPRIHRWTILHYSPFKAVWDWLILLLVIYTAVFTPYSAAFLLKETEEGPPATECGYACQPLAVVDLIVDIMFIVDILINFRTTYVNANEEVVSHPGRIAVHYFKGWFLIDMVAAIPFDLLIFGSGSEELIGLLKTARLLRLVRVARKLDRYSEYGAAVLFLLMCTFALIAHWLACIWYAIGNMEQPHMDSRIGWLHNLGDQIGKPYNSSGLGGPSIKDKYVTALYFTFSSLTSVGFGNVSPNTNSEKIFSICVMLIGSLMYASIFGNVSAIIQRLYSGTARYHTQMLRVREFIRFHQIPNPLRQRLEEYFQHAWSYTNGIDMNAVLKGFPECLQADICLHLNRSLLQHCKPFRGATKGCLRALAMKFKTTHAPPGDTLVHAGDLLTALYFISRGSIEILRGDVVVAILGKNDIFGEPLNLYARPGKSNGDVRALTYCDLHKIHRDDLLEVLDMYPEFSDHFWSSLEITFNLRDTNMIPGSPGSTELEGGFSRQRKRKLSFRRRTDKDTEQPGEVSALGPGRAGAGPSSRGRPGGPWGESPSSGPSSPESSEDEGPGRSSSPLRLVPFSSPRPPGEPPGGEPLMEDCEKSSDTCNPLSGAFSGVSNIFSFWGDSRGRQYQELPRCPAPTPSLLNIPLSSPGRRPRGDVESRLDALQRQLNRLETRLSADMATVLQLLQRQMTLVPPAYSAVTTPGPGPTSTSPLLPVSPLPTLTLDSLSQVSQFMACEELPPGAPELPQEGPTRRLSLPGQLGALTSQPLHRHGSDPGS

In the case of `CN(C)c1ccc(C(=C2C=CC(=[N+](C)C)C=C2)c2ccc(N(C)C)cc2)cc1` [Crystal Violet Dye, Crystal Violet], the Ka in [1] is given as 5.2 ± 0.8 × 10^6.
`COc1ccc2nc3cc(Cl)ccc3c(NCCCNCCCl)c2c1` [ICR 191 Acridine]: the “revertant colonies, positive control” value in the data set on TA1537 strain (−S9) amounted to 91 colonies.
As to `[N-]=[N+]=[N-]` [sodium azide], the “revertant colonies, positive control” value turned out to be 167 colonies in the data set with TA100 [2] and 232 colonies in data set [3].
Take `Nc1ccc2cc3ccccc3cc2c1` [2-aminoanthracene]: the “revertant colonies, positive control” value with TA100 [4] amounted to 1345 colonies; with TA98 strain (10 μg/plate), 1084 colonies; in [5], 27 colonies; in the data set with TA1537 strain (+S9), 122 colonies.
For the compound `CC[C@H]1OC(=O)[C@H](C)[C@@H](O[C@H]2C[C@@](C)(OC)[C@@H](O)[C@H](C)O2)[C@H](C)[C@@H](O[C@@H]2O[C@H](C)C[C@H](N(C)C)[C@H]2O)[C@](C)(O)C[C@@H](C)C(=O)[C@H](C)[C@@H](O)[C@]1(C)O` [Erythromycin], the “cell death (AK)” value in the data set with HEK293 [6] stood at 25%. Further, the “cell viability (MTS)” value is 36% with HepG2 [7] and 47% in the data set on HEK293 [8].
In the case of hydroxypropyl-β-CD [HP-β-CD], the “interference with the hERG” value on hERG was “significant, non-dose dependent interference”.
For `CCC(=O)O[C@H]1[C@H](O[C@@H]2[C@@H](C)[C@H](O[C@H]3C[C@@](C)(OC)[C@@H](O)[C@H](C)O3)[C@@H](C)C(=O)O[C@H](CC)[C@@](C)(O)[C@H](O)[C@@H](C)C(=O)[C@H](C)C[C@@]2(C)O)O[C@H](C)C[C@@H]1N(C)C` [erythromycin estolate], the “cell death (AK)” value with HEK293 [6] is listed as 49%; in the data set on HepG2 [9] it was 100%. The “cell viability (MTS)” value was 10% in the data set with HepG2 [7] and 11% in the data set with HEK293 [8].
In the case of `C(=C\c1ccccc1)/CN1CCN(C(c2ccccc2)c2ccccc2)CC1` [Cinnarizine], the Solubility enhancement in [10] is reported as 354 fold.
`CCCS(=O)(=O)c1ccc2nc(NC(=O)OC)[nH]c2c1` [ABZSO2, albendazole sulfone]: the “Absolute Bioavailability (%)” value in data set [11] came out at 81%. The “tmax” value in [11] (ip, 3.2 mg/kg) was 2 h; in [12], 2 h.
On to `C[N+](C)(C)CCOC(=O)CCC(=O)OCC[N+](C)(C)C` [succinyl choline], for which the Ka in data set [1] was 1.9 ± 0.1 × 10^5.
As to `COC(=O)[C@H](c1ccccc1Cl)N1CCc2sccc2C1` [Clopidogrel], the Solubility enhancement in data set [10] is recorded as 1220 fold.
One may read the AUC as concentration integrated over time. Low values mean less exposure, high ones more exposure. By Cmax is commonly meant the maximum level reached in the sampled fluid or tissue. For the compound `CCC[S+]([O-])c1ccc2[nH]c(NC(=O)OC)nc2c1` (centres unmarked) [ABZSO, albendazole sulfoxide], the exposure (AUC) in data set [13] (setting [19]) is 14300 ng·h/mL; in data set [14] (IP Route, Motor1.ABZ (681 and 3.2 mg/kg)) it was 6150 ng·h/mL. The “tmax” value in data set [13] (setting [19]) worked out at 0.5 h; in [14] (IP administration, Motor1.ABZ (681 and 3.2 mg/kg)), 0.25 h. Besides, the maximum concentration (Cmax) stood at 4340 ng/mL in [13] (IV Route, one injection of Motor1.ABZ (681 and 3.2 mg/kg), plasma); 2620 ng/mL in data set [14] (IP Route, one injection of Motor1.ABZ (681 and 3.2 mg/kg), plasma). Besides, the plasma concentration in data set [13] (t = 5 min, individual mice (duplicates a, b)) was 2310 ng/mL and 2970 ng/mL and 1930 ng/mL and 1840 ng/mL and 2740 ng/mL and 2630 ng/mL and 2030 ng/mL and 2070 ng/mL and 2330 ng/mL; in data set [13] (t = 15 min, individual mice), 3360 ng/mL and 3370 ng/mL and 3100 ng/mL and 2900 ng/mL and 3880 ng/mL and 3580 ng/mL; in [13] (t = 30 min, individual mice), 4800 ng/mL and 4210 ng/mL and 4100 ng/mL and 3740 ng/mL and 4240 ng/mL; in [13] (t = 2 h, individual mice) it was 2110 ng/mL and 1590 ng/mL and 2100 ng/mL and 2490 ng/mL and 2810 ng/mL and 2400 ng/mL; in data set [13] (t = 4 h, individual mice), 923 ng/mL and 821 ng/mL and 777 ng/mL and 650 ng/mL; in [13] (t = 8 h, individual mice), 404 ng/mL and 433 ng/mL and 510 ng/mL and 475 ng/mL. Moreover, the plasma concentration was 30 ng/mL and 47 ng/mL and 52 ng/mL and 72 ng/mL and 42 ng/mL in data set [13] (t = 16 h, individual mice); 298 ng/mL and 400 ng/mL and 817 ng/mL and 816 ng/mL and 600 ng/mL in data set [14] (t = 5, individual mice); 2460 ng/mL and 2160 ng/mL and 2910 ng/mL and 2934 ng/mL in [14] (t = 15 min, individual mice); 2350 ng/mL and 2650 ng/mL and 2320 ng/mL and 2480 ng/mL in data set [14] (t = 30 min, individual mice); 1060 ng/mL and 564 ng/mL and 463 ng/mL and 764 ng/mL and 888 ng/mL in data set [14] (t = 2 h, individual mice); 417 ng/mL and 361 ng/mL and 431 ng/mL and 91 ng/mL in [14] (t = 4 h, individual mice). Further, the plasma concentration in data set [14] (t = 8 h, individual mice) is 158 ng/mL and 131 ng/mL. In data set [13] (Swiss Webster, mouse, in vivo, iv, plasma concentration, t = 5 min, individual mice (duplicates a, b)), the concentration at 5 min amounted to 2880 ng/mL. Further, the concentration at 15 min in [13] (Swiss Webster, mouse, in vivo, iv, plasma concentration, t = 15 min, individual mice) is 3490 ng/mL; in data set [14] (Swiss Webster, mouse, in vivo, ip, plasma concentration, t = 15 min, individual mice), 2820 ng/mL. Also, the concentration at 30 min in data set [13] (Swiss Webster, mouse, in vivo, iv, plasma concentration, t = 30 min, individual mice) came to 3960 ng/mL; in data set [14] (Swiss Webster, mouse, in vivo, ip, plasma concentration, t = 30 min, individual mice), 3050 ng/mL. The same compound displayed a concentration at 2 h in [13] (Swiss Webster, mouse, in vivo, iv, plasma concentration, t = 2 h, individual mice) of 1590 ng/mL. Also, the concentration at 4 h in data set [13] (Swiss Webster, mouse, in vivo, iv, plasma concentration, t = 4 h, individual mice) worked out at 614 ng/mL. Further, the concentration at 8 h in [13] (Swiss Webster, mouse, in vivo, iv, plasma concentration, t = 8 h, individual mice) came to 330 ng/mL; in data set [14] (Swiss Webster, mouse, in vivo, ip, plasma concentration, t = 8 h, individual mice), 183 ng/mL. In addition, in data set [14] (IP Route relative to IV), the “Absolute Bioavailability (%)” value is on record as 43%. This compound also showed a concentration at 16 h in data set [14] (Swiss Webster, mouse, in vivo, ip, plasma concentration, t = 16 h, individual mice) of 44 ng/mL.
Regarding `N[C@@H](Cc1ccc(N(CCCl)CCCl)cc1)C(=O)O` [Melphalan], the Solubility enhancement in data set [10] is 655 fold.
On to `O=C1N2CN3C(=O)N4CN5C(=O)N6CN7C(=O)N8CN9C(=O)N%10CN%11C(=O)N%12CN%13C(=O)N%14CN1C1C2N2CN%15C(=O)N(CN%16C(=O)N(CN%17C(=O)N(CN%18C(=O)N(CN%19C(=O)N(CN%20C(=O)N(CN1C2=O)C%14C%13%20)C%12C%11%19)C%10C9%18)C8C7%17)C6C5%16)C4C3%15` (centres unmarked) [CB[7]], for which the Solubility result in data set [15] was “≈ 20 mM”.
Take `Cc1c(Cl)cccc1Nc1ccccc1C(=O)O` [tolfenamic acid]: the Solubility enhancement in [16] is 37 fold.
As to `NCCCCN` [butane-1,4-diamine], in data set [1], the Ka is 1.2 ± 0.1 × 10^5.
On the same count and under the same terms, with `Nc1ccc(N)cc1` [benzene-1,4-diamine] the figure was 3.5 ± 0.2 × 10^5.
`COc1ccc2c(c1)c(CC(=O)O)c(C)n2C(=O)c1ccc(Cl)cc1` [indomethacin]: the Solubility enhancement in data set [16] stood at 56 fold.
Take `COc1cccc2c1C(=O)c1c(O)c3c(c(O)c1C2=O)C[C@@](O)(C(C)=O)C[C@@H]3O[C@H]1C[C@H](N)[C@H](O)[C@H](C)O1` [Daunomycin]: in the data set on TA98 strain (6 μg/plate), the “revertant colonies, positive control” value was determined as 361 colonies.
With `CC(=O)O[C@H]1C(=O)[C@@]2(C)[C@H]([C@H](OC(=O)c3ccccc3)[C@]3(O)C[C@H](OC(=O)[C@H](O)[C@@H](NC(=O)c4ccccc4)c4ccccc4)C(C)=C1C3(C)C)[C@]1(OC(C)=O)CO[C@@H]1C[C@@H]2O` [Taxol], the “DNA fragmentation and cell death in comparison to untreated” value with Hela and in the data set with MCF-7 was “little to no cell death” each time. The Ka stood at 31000 M⁻¹ in data set [17] and 19000 M⁻¹ in data set [18]. In data set [10], the Solubility enhancement came out at 2750 fold.
With `CC[C@@]1(O)C(=O)OCc2c1cc1n(c2=O)Cc2cc3ccccc3nc2-1` [S-camptothecin], the Solubility enhancement in data set [16] is 580 fold.
